The record followed here is ChEMBL document CHEMBL1156642, “Discovery of betamethasone 17alpha-carbamates as dissociated glucocorticoid receptor modulators in the rat” (Bioorg Med Chem, 2008).

The structures appear in SMILES notation.

For one experiment, the species on record is Rattus norvegicus. Nature of the experiment: Transactivation activity of glutamine synthase in rat skeletal muscle cells relative to Dexamethasone. Type of experiment: cell-based.
A further experiment has as its target T1, Glucocorticoid receptor (Homo sapiens, UniProt P04150).
T1 sequence (P04150 whole entry): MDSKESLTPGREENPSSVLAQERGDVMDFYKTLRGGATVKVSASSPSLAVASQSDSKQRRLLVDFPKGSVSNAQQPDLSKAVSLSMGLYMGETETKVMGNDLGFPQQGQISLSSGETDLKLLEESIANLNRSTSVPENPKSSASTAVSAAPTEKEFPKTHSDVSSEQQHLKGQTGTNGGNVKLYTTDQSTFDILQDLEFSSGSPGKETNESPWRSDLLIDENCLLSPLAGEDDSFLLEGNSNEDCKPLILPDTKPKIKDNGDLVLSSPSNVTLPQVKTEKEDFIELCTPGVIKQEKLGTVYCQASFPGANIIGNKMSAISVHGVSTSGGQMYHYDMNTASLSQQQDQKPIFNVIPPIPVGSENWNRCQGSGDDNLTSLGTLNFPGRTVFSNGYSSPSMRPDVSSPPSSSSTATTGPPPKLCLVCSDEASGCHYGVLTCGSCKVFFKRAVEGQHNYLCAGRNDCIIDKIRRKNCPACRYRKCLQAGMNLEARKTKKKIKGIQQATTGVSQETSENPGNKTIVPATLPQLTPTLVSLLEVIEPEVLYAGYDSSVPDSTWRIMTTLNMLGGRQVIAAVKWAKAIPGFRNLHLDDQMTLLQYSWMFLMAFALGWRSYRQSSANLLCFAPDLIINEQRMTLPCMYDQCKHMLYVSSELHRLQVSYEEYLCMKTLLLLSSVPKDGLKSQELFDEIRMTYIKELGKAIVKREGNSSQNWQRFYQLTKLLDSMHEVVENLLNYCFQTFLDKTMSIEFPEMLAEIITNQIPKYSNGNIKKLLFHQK

For experiment [1], the target named is T2, Interstitial collagenase (Homo sapiens) (UniProt P03956).
T2 sequence (whole entry): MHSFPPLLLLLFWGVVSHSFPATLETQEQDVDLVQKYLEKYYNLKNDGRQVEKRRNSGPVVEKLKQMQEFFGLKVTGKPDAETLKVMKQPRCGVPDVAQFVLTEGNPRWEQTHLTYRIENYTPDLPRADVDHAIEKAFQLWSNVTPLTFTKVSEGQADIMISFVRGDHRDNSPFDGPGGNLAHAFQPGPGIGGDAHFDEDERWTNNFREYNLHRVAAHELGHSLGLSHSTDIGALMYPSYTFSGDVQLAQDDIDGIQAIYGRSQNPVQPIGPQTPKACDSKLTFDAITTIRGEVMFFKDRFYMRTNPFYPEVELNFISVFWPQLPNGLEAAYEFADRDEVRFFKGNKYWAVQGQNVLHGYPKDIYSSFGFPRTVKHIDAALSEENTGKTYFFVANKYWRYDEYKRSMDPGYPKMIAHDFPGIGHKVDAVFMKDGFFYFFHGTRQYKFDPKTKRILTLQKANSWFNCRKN
Nature of the experiment: Inhibition of glucocorticoid-mediated human MMP1 expression in PMA stimulated A549 cells assessed as MMP1 protein level by ELISA relative to Dexamethasone. In kind it is cell-based. Also on record: scale not given: the % may be the effect or the level left. For orientation: An ELISA detects its analyte on a solid surface through an enzyme-linked reagent.

A short description of experiment [2]: Transactivation activity of glutamine synthase in rat skeletal muscle cells. In kind it is cell-based.
In the next experiment the target is T3, Progesterone receptor (Homo sapiens, UniProt P06401).
T3 sequence (P06401 whole entry): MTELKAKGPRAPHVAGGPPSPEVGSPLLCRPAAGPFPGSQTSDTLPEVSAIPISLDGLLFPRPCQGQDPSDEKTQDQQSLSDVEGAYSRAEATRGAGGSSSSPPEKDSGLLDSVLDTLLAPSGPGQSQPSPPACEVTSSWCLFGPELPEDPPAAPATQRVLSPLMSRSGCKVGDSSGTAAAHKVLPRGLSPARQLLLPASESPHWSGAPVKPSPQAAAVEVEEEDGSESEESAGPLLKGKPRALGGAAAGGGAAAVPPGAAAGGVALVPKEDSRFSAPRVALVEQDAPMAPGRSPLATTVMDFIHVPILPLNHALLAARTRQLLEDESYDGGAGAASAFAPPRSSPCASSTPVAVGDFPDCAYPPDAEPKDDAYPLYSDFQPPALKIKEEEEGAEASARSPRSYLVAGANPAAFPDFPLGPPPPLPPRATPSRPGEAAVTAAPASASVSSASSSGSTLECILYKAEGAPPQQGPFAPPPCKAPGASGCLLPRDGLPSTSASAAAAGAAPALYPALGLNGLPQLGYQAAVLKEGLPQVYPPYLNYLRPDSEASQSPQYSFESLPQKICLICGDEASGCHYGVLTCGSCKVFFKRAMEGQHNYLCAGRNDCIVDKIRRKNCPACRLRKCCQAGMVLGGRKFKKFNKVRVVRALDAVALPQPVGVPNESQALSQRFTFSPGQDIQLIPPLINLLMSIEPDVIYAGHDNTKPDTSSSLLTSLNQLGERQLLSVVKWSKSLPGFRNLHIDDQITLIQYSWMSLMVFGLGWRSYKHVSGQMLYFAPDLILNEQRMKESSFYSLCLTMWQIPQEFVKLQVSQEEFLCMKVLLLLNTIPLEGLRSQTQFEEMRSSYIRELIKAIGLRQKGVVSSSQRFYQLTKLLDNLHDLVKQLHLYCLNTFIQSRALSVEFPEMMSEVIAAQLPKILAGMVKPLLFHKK
Nature of the experiment: Inhibition of human progesterone receptor.

Description for Glucocorticoid receptor: Inhibition of human glucocorticoid receptor

Regarding `CC(C)NC(=O)O[C@]1(C(=O)CO)[C@@H](C)C[C@H]2[C@@H]3CCC4=CC(=O)C=C[C@]4(C)[C@@]3(F)[C@@H](O)C[C@@]21C`, the Activity was 26% in the experiment listed under Rattus norvegicus and 105% in experiment [1]. Further, the IC50 (usually the midpoint of a concentration-inhibition curve) at Glucocorticoid receptor is 21.5 nM.
For `C[C@H]1C[C@H]2[C@@H]3CCC4=CC(=O)C=C[C@]4(C)[C@@]3(F)[C@@H](O)C[C@]2(C)[C@@]1(OC(=O)NC1CCCC1)C(=O)CO` the same measures were 23%, 76.1% and 3.8 nM.
For `C[C@H](NC(=O)O[C@]1(C(=O)CO)[C@@H](C)C[C@H]2[C@@H]3CCC4=CC(=O)C=C[C@]4(C)[C@@]3(F)[C@@H](O)C[C@@]21C)c1ccccc1`, the Activity in the experiment listed under Rattus norvegicus is 49%; in experiment [1], 93%. In addition, the EC50 (usually the concentration that produces a half-maximal response) in experiment [2] amounted to 0.6 nM. The IC50 against Glucocorticoid receptor is 1.3 nM; at Progesterone receptor, 176 nM.
Take `CCC(C)NC(=O)O[C@]1(C(=O)CO)[C@@H](C)C[C@H]2[C@@H]3CCC4=CC(=O)C=C[C@]4(C)[C@@]3(F)[C@@H](O)C[C@@]21C` (some centres not stated): the figures for the Activity (in the experiment listed under Rattus norvegicus; in experiment [1]) were 54% and 97.5%, respectively. In experiment [2], this compound returned a concentration for a half-maximal effect (EC50) of 0.3 nM. Further, the half-maximal inhibitory concentration (IC50) against Glucocorticoid receptor was 0.5 nM.
Compound `C[C@H]1C[C@H]2[C@@H]3CCC4=CC(=O)C=C[C@]4(C)[C@@]3(F)[C@@H](O)C[C@]2(C)[C@@]1(OC(=O)NC12CC3CC(CC(C3)C1)C2)C(=O)CO` displayed an IC50 on Glucocorticoid receptor of 5.8 nM. Moreover, the Activity in experiment [1] was 84.1%.
For `COC(=O)[C@H](C)NC(=O)O[C@]1(C(=O)CO)[C@@H](C)C[C@H]2[C@@H]3CCC4=CC(=O)C=C[C@]4(C)[C@@]3(F)[C@@H](O)C[C@@]21C`, the Activity is 103% in the experiment filed under Rattus norvegicus and 107% in experiment [1]. Moreover, the EC50 in experiment [2] came out at 47 nM. Also, the IC50 against Glucocorticoid receptor stood at 28.6 nM.
With `C[C@H]1C[C@H]2[C@@H]3CCC4=CC(=O)C=C[C@]4(C)[C@@]3(F)[C@@H](O)C[C@]2(C)[C@@]1(OC(=O)NCC(C)(C)C)C(=O)CO`, the IC50 at Glucocorticoid receptor worked out at 352 nM. For the same compound, in experiment [1], the Activity is 44.7%.
Take `CCCCNC(=O)O[C@]1(C(=O)CO)[C@@H](C)C[C@H]2[C@@H]3CCC4=CC(=O)C=C[C@]4(C)[C@@]3(F)[C@@H](O)C[C@@]21C`: the Activity in the experiment filed under Rattus norvegicus is 31.3%; in experiment [1] it was 98%. At Glucocorticoid receptor, inhibition was half-maximal at 2.8 nM (IC50).
`C[C@H]1C[C@H]2[C@@H]3CCC4=CC(=O)C=C[C@]4(C)[C@@]3(F)[C@@H](O)C[C@]2(C)[C@@]1(OC(=O)NC1CCCCC1)C(=O)CO`: the Activity in the experiment listed under Rattus norvegicus was determined as 24.7%; in experiment [1], 82%. Besides, half-maximal inhibition against Progesterone receptor (IC50) required 120 nM.
`C[C@H]1C[C@H]2[C@@H]3CCC4=CC(=O)C=C[C@]4(C)[C@@]3(F)[C@@H](O)C[C@]2(C)[C@@]1(OC(=O)NC(C)(C)CC(C)(C)C)C(=O)CO`: the results for the Activity (in the experiment filed under Rattus norvegicus; in experiment [1]) were 50% and 80.3%, respectively. For the same compound, the response in experiment [2] was half-maximal at 223 nM (EC50). Besides, the 50% inhibitory concentration (IC50) against Glucocorticoid receptor is 5.7 nM; at Progesterone receptor, over 1000 nM.
For `C[C@H]1C[C@H]2[C@@H]3CCC4=CC(=O)C=C[C@]4(C)[C@@]3(F)[C@@H](O)C[C@]2(C)[C@@]1(OC(=O)NCCC(C)(C)C)C(=O)CO`, the values for the Activity (in the experiment filed under Rattus norvegicus; in experiment [1]) were 61.8% and 56.3%, respectively. In experiment [2], this compound yielded an EC50 of 576 nM. This compound displayed a concentration for half-maximal inhibition (IC50) on Glucocorticoid receptor of 12.3 nM.
For the compound `C=CCNC(=O)O[C@]1(C(=O)CO)[C@@H](C)C[C@H]2[C@@H]3CCC4=CC(=O)C=C[C@]4(C)[C@@]3(F)[C@@H](O)C[C@@]21C`, the Activity in the experiment listed under Rattus norvegicus was 16%; in experiment [1] it was 106%. Further, the IC50 against Glucocorticoid receptor was 17.4 nM; against Progesterone receptor it was over 1000 nM.
For `C[C@H]1C[C@H]2[C@@H]3CCC4=CC(=O)C=C[C@]4(C)[C@@]3(F)[C@@H](O)C[C@]2(C)[C@@]1(OC(=O)NC(C)(C)C)C(=O)CO`, the Activity came to 64% in the experiment filed under Rattus norvegicus and 94% in experiment [1]. The same compound gave a 50% effective concentration (EC50) in experiment [2] of 0.37 nM. At Glucocorticoid receptor, this compound gave an IC50 of 2.4 nM.
For `C[C@@H](NC(=O)O[C@]1(C(=O)CO)[C@@H](C)C[C@H]2[C@@H]3CCC4=CC(=O)C=C[C@]4(C)[C@@]3(F)[C@@H](O)C[C@@]21C)c1ccccc1`, in that order: 92%, 87.5%, 1.6 nM and 5.2 nM.
For `CCCCCNC(=O)O[C@]1(C(=O)CO)[C@@H](C)C[C@H]2[C@@H]3CCC4=CC(=O)C=C[C@]4(C)[C@@]3(F)[C@@H](O)C[C@@]21C`, in that order: 60.3%, 97.5%, 0.4 nM and 2.1 nM.
Take `CCC(C)(C)NC(=O)O[C@]1(C(=O)CO)[C@@H](C)C[C@H]2[C@@H]3CCC4=CC(=O)C=C[C@]4(C)[C@@]3(F)[C@@H](O)C[C@@]21C`: the values for the Activity (in the experiment listed under Rattus norvegicus; in experiment [1]) were 35% and 65.9%, respectively. At Glucocorticoid receptor, this compound displayed an IC50 of 55.1 nM.
